Measurements published in PMC8048639 (2021).

Legend:
[1] = test system: poly(rA)-poly(rU) (RNA, polymer) A/U; test: fluorimetric titration, Scatchard fit; settings: Na+ (sodium cacodylate buffer, I=0.05 M), pH 7.0, per base
[2] = test system: poly(dAdT)2 (DNA, polymer) AT; test: UV thermal melting at 260 nm; settings: Na+ (sodium cacodylate buffer, I=0.05 M); pH 7.0; r=[compound]/[polynucleotide]=0.1; per base
[3] = test system: poly(rG) (RNA, polymer) G; test: fluorimetric titration, Scatchard fit; settings: Na+ (sodium cacodylate buffer, I=0.05 M), pH 7.0, n fixed, per base
[4] = test system: poly(dGdC)2 (DNA, polymer) GC; test: fluorimetric titration, Scatchard fit; settings: Na+ (sodium cacodylate buffer, I=0.05 M), pH 7.0, n fixed, per base
[5] = test system: poly(rA)-poly(rU) (RNA, polymer) A/U; test: UV thermal melting at 260 nm; settings: Na+ (sodium cacodylate buffer, I=0.05 M); pH 7.0; r=[compound]/[polynucleotide]=0.1; per base
[6] = test system: poly(rU) (RNA, polymer) U; test: fluorimetric titration, Scatchard fit; settings: Na+ (sodium cacodylate buffer, I=0.05 M), pH 7.0, n fixed, per base
[7] = test system: poly(rA) (RNA, polymer) A; test: fluorimetric titration, Scatchard fit; settings: Na+ (sodium cacodylate buffer, I=0.05 M), pH 7.0, n fixed, per base
[8] = test system: poly(dAdT)2 (DNA, polymer) AT; test: fluorimetric titration, Scatchard fit; settings: Na+ (sodium cacodylate buffer, I=0.05 M), pH 7.0, n fixed, per base
[9] = test system: poly(dT) (DNA, polymer) T; test: fluorimetric titration, Scatchard fit; settings: Na+ (sodium cacodylate buffer, I=0.05 M), pH 7.0, n fixed, per base
[10] = test system: poly(rC) (RNA, polymer) C; test: fluorimetric titration, Scatchard fit; settings: Na+ (sodium cacodylate buffer, I=0.05 M), pH 7.0, n fixed, per base
[11] = test system: poly(dA) (DNA, polymer) A; test: fluorimetric titration, Scatchard fit; settings: Na+ (sodium cacodylate buffer, I=0.05 M); pH 7.0; compound 5×10^-8 M; n fixed; per base
[12] = compound 5×10^-8 M, aggregation at excess dye
[13] = compound 5×10^-8 M, apparent, lowered by competing aggregation

Cc1cc(C#Cc2c3ccccc3c(C#Cc3cc(C)c(B(c4c(C)cc([N+](C)(C)C)cc4C)c4c(C)cc([N+](C)(C)C)cc4C)c(C)c3)c3ccccc23)cc(C)c1B(c1c(C)cc([N+](C)(C)C)cc1C)c1c(C)cc([N+](C)(C)C)cc1C
log K S ([1]; compound 1×10^-8 M, limit only): > 9 | ΔT m [2]: 6 ± 0.5 °C | log K S [3]: 8.7 | log K S ([4]; compound 1×10^-8 M): 7.9 | ΔT m [5]: 8 ± 0.5 °C | log K S [6]: 8.8 | log K S [7]: 7.8 | log K S ([8]; compound 1×10^-8 M, aggregation at excess dye): 7.7 | log K S [9]: 7.4

Cc1cc(C#Cc2ccc(-c3ccc(C#Cc4cc(C)c(B(c5c(C)cc([N+](C)(C)C)cc5C)c5c(C)cc([N+](C)(C)C)cc5C)c(C)c4)s3)s2)cc(C)c1B(c1c(C)cc([N+](C)(C)C)cc1C)c1c(C)cc([N+](C)(C)C)cc1C
log K S ([1]; compound 5×10^-8 M, apparent, lowered by competing aggregation, n fixed): 6.0 | ΔT m [2]: 3 ± 0.5 °C | log K S [3, 12]: 7.1 | log K S [10, 12]: 7.4 | log K S [4, 13]: 6.6 | ΔT m [5]: 7 ± 0.5 °C | log K S ([6]; compound 5×10^-8 M): 7.0 | log K S [8, 13]: 5.1 | log K S ([9]; compound 5×10^-8 M): 7.6 | log K S [11]: 7.6

Cc1cc(C#Cc2ccc(C#Cc3cc(C)c(B(c4c(C)cc([N+](C)(C)C)cc4C)c4c(C)cc([N+](C)(C)C)cc4C)c(C)c3)cc2)cc(C)c1B(c1c(C)cc([N+](C)(C)C)cc1C)c1c(C)cc([N+](C)(C)C)cc1C
log K S ([1]; n fixed): 8.6 | log K S [3]: 8.7 | log K S [10]: 7.1 | log K S [4]: 8.4 | ΔT m [5]: 9 ± 0.5 °C | log K S [6]: 7.4 | log K S [7]: 8.4 | log K S ([8]; compound 5×10^-9 M): 7.8 | log K S [9]: 8.5

Cc1cc([N+](C)(C)C)cc(C)c1B(c1c(C)cc([N+](C)(C)C)cc1C)c1c2ccccc2c(B(c2c(C)cc([N+](C)(C)C)cc2C)c2c(C)cc([N+](C)(C)C)cc2C)c2ccccc12
log K S ([1]; compound 5×10^-8 M, n fixed): 7.9 | log K S ([3]; compound 5×10^-8 M): 7.3 | log K S ([10]; compound 5×10^-8 M): 7.2 | log K S ([4]; compound 5×10^-8 M): 7.8 | ΔT m [5]: 0 ± 0.5 °C | log K S ([6]; compound 5×10^-8 M): 7.1 | log K S ([7]; compound 5×10^-8 M): 7.1 | log K S ([8]; compound 5×10^-8 M): 7.4
